± gives the standard deviation of the averaged measurements.
What was measured:
[1] = compound: O=C(NOCC1CC1)c1ccc(F)c(F)c1Nc1ccc(I)cc1Cl; test: surviving fraction relative to DMSO-only wells; higher = less growth inhibition; settings: exposure time: 5 days
Outline: (§1)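 Viability was determined by CellTiter-Glo luminescence, expressed as surviving fraction normalised to the median of DMSO-only wells. The cells were log-phase tumour cell lines seeded at 250–500 per well in 384-well plates and, after 24 hours, exposed continuously for five days to inhibitors at 0.5, 1, 5, 10, 50, 100, 500 and 1000 nM. Three screens per line were run, keeping only lines with replicate Pearson r >0.7 and median Z' >0.3.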

ERLOTINIB = compound: C#Cc1cccc(Nc2ncnc3cc(OCCOC)c(OCCOC)cc23)c1 [ERLOTINIB]; test: as above; settings: exposure time: 5 days
Outline: as §1

MK0752 = compound: O=C(O)CC[C@H]1CC[C@@](c2cc(F)ccc2F)(S(=O)(=O)c2ccc(Cl)cc2)CC1 [MK0752]; test: area under dose-response curve of surviving fraction (unscaled, Aref=0) (surviving fraction x log10(nM)); higher = more resistant; settings: exposure time: 5 days; dose range 0.5-1000 nM
Outline: (§2)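 Surviving fractions were fitted by 3-parameter logistic regression in the drc R package to give dose-response survival curves. They came from tumour cell lines treated for five days with eight inhibitor concentrations from 0.5 to 1000 nM and read by CellTiter-Glo luminescence against DMSO-only wells. The area under the curve is the unscaled activity area. It was calculated over log10 dose with Aref = 0.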

VINORELBINE = compound: CCC1=C[C@@H]2CN(C1)Cc1c([nH]c3ccccc13)[C@@](C(=O)OC)(c1cc3c(cc1OC)N(C)[C@H]1[C@@](O)(C(=O)OC)[C@H](OC(C)=O)[C@]4(CC)C=CCN5CC[C@]31[C@@H]54)C2 [VINORELBINE]; test: as above; settings: exposure time: 5 days; dose range 0.5-1000 nM
Outline: as §2

PLX-4720 = compound: CCCS(=O)(=O)Nc1ccc(F)c(C(=O)c2c[nH]c3ncc(Cl)cc23)c1F [PLX-4720]; test: as above; settings: exposure time: 5 days; dose range 0.5-1000 nM
Outline: as §2

GEMCITABINE = compound: Nc1ccn([C@@H]2O[C@H](CO)[C@@H](O)C2(F)F)c(=O)n1 [GEMCITABINE]; test: as above; settings: exposure time: 5 days; dose range 0.5-1000 nM
Outline: as §2

Row | Test System | surviving fraction ([1]; 0.5 nM) | surviving fraction ([1]; 1 nM) | surviving fraction ([1]; 5 nM) | surviving fraction ([1]; 10 nM) | surviving fraction ([1]; 50 nM) | surviving fraction ([1]; 100 nM) | surviving fraction ([1]; 500 nM) | surviving fraction ([1]; 1000 nM) | surviving fraction (ERLOTINIB; 0.5 nM) | surviving fraction (ERLOTINIB; 1 nM) | surviving fraction (ERLOTINIB; 5 nM) | surviving fraction (ERLOTINIB; 10 nM) | surviving fraction (ERLOTINIB; 50 nM) | surviving fraction (ERLOTINIB; 100 nM) | surviving fraction (ERLOTINIB; 500 nM) | surviving fraction (ERLOTINIB; 1000 nM) | area under dose-response curve (MK0752) | area under dose-response curve (VINORELBINE) | area under dose-response curve (PLX-4720) | area under dose-response curve (GEMCITABINE)
1 | MFM223 BREAST | 1.09 ± 0.046 | 1.06 ± 0.088 | 1.05 ± 0.059 | 1.07 ± 0.089 | 1.14 ± 0.037 | 1.12 ± 0.057 | 1.012 ± 0.0095 | 1.04 ± 0.03 | 1.44 ± 0.48 | 1.5 ± 0.64 | 1.49 ± 0.59 | 1.48 ± 0.48 | 1.16 ± 0.13 | 1.2 ± 0.039 | 1.22 ± 0.052 | 1.16 ± 0.033 | 3.93 | 1.45 | 2.87 | 1.99
2 | HOS BONE | 0.996 ± 0.015 | 1.01 ± 0.025 | 0.997 ± 0.014 | 1.01 ± 0.033 | 0.9843 ± 0.006 | 0.998 ± 0.018 | 0.951 ± 0.02 | 0.9593 ± 0.0051 | 1.038 ± 0.0011 |  | 1.03 ± 0.028 | 1.03 ± 0.022 |  | 1.05 ± 0.0058 | 1.03 ± 0.038 | 0.98 ± 0.046 | 3.51 | 1.78 | 3.19 | 0.975
3 | SNU475 LIVER | 0.432 ± 0.042 | 0.908 ± 0.038 | 0.802 ± 0.022 | 0.941 ± 0.018 | 0.439 ± 0.015 | 0.883 ± 0.013 | 0.676 ± 0.018 | 0.741 ± 0.039 | 1.01 ± 0.03 |  | 0.974 ± 0.064 | 0.982 ± 0.044 | 0.957 ± 0.03 | 1 ± 0.047 | 0.909 ± 0.012 | 0.88 ± 0.057 | 3.31 | 2.17 | 2.43 | 1.81
4 | SG31 HEADNECK | 1.02 ± 0.087 | 0.977 ± 0.097 | 0.951 ± 0.14 | 1.06 ± 0.18 | 0.778 ± 0.12 | 0.756 ± 0.11 | 0.575 ± 0.032 | 0.547 ± 0.088 | 1.29 ± 0.38 | 1.29 ± 0.13 | 1.03 ± 0.11 | 0.863 ± 0.092 | 1.08 ± 0.18 | 0.762 ± 0.059 | 0.716 ± 0.2 | 0.667 ± 0.21 | 3.35 | 2.07 | 2.73 | 2.51
5 | SAOS2 BONE | 1.08 ± 0.042 | 1.06 ± 0.032 | 1.04 ± 0.073 | 1.02 ± 0.018 | 1.02 ± 0.039 | 0.986 ± 0.078 | 0.885 ± 0.031 | 0.908 ± 0.047 | 1.22 ± 0.066 | 1.2 ± 0.044 | 1.18 ± 0.095 | 1.24 ± 0.035 | 1.26 ± 0.12 | 1.23 ± 0.051 | 1.09 ± 0.094 | 1.05 ± 0.075 | 3.89 | 1.6 | 3.06 | 0.983
6 | HCC78 LUNG | 0.787 ± 0.12 | 0.836 ± 0.085 | 0.841 ± 0.11 | 0.832 ± 0.25 | 0.898 ± 0.17 | 0.885 ± 0.15 | 0.486 ± 0.058 | 0.632 ± 0.097 | 0.768 ± 0.087 |  | 0.918 ± 0.11 | 1.02 ± 0.033 | 0.962 ± 0.18 |  | 0.767 ± 0.15 | 0.847 ± 0.1 | 3.32 | 1.48 | 3.25 | 0.382
7 | PCI30 HEADNECK | 0.831 ± 0.027 | 0.849 ± 0.074 | 1.02 ± 0.078 | 1.01 ± 0.029 | 0.903 ± 0.015 | 0.758 ± 0.026 | 0.433 ± 0.036 | 0.402 ± 0.023 | 1.05 ± 0.12 |  | 1.12 ± 0.066 | 1.07 ± 0.078 |  | 0.951 ± 0.1 | 0.538 ± 0.036 | 0.508 ± 0.029 | 3.5 | 1.21 | 3.34 | 1.8
8 | JURKAT HAEMATOPOIETIC AND LYMPHOID TISSUE | 1.03 ± 0.012 | 1.032 ± 0.0095 | 1.04 ± 0.016 | 1.02 ± 0.044 | 0.98 ± 0.011 | 1 ± 0.014 | 1.03 ± 0.013 | 0.994 ± 0.033 | 1.05 ± 0.025 |  | 1.05 ± 0.037 | 1.03 ± 0.041 | 0.989 ± 0.035 | 1.01 ± 0.015 | 0.988 ± 0.015 | 1.01 ± 0.038 | 3.4 | 1.24 | 3.23 | 1.01
9 | SG43 HEADNECK | 1.05 ± 0.079 | 0.969 ± 0.011 | 0.853 ± 0.17 | 0.676 ± 0.16 | 0.567 ± 0.1 | 0.521 ± 0.06 | 0.387 ± 0.07 | 0.333 ± 0.064 | 1.06 ± 0.2 | 0.978 ± 0.049 | 0.882 ± 0.18 | 0.734 ± 0.17 | 0.689 ± 0.13 | 0.458 ± 0.16 | 0.265 ± 0.032 | 0.335 ± 0.097 | 3.25 | 1.93 | 3.93 | 2.1
10 | MDAMB468 BREAST | 0.938 ± 0.079 | 0.983 ± 0.083 | 1.02 ± 0.029 | 1 ± 0.11 | 0.933 ± 0.046 | 0.998 ± 0.038 | 0.885 ± 0.029 | 0.913 ± 0.0098 | 1.06 ± 0.052 | 0.995 ± 0.038 | 1.14 ± 0.072 | 1.05 ± 0.035 | 1.15 ± 0.12 | 1.105 ± 0.011 | 0.902 ± 0.06 | 0.748 ± 0.04 | 3.61 | 1.33 | 3.1 | 1.09
11 | CADOES1 SOFT TISSUE | 0.913 ± 0.11 | 0.844 ± 0.075 | 0.894 ± 0.15 | 0.86 ± 0.081 | 0.903 ± 0.061 | 0.918 ± 0.1 | 0.875 ± 0.14 | 0.746 ± 0.14 | 0.854 ± 0.09 | 0.853 ± 0.033 | 0.882 ± 0.11 | 0.839 ± 0.11 | 0.783 ± 0.073 | 0.829 ± 0.057 |  | 0.842 ± 0.077 | 3.14 | 2.63 | 3.09 | 1.18
12 | HT1080 SOFT TISSUE | 1.009 ± 0.0071 | 1.016 ± 0.01 | 1.01 ± 0.028 | 1.03 ± 0.029 | 1.08 ± 0.025 | 1.04 ± 0.039 | 0.741 ± 0.0079 | 0.617 ± 0.036 |  | 1.05 ± 0.032 | 1.06 ± 0.027 | 1.05 ± 0.026 | 1.024 ± 0.004 | 1.02 ± 0.022 | 1.07 ± 0.066 | 1.03 ± 0.077 | 3.29 | 1.38 | 3.25 | 1.22
13 | SKBR3 BREAST | 1.12 ± 0.17 | 1.1 ± 0.13 | 1.11 ± 0.07 | 1.1 ± 0.26 | 1.08 ± 0.19 | 1.05 ± 0.14 | 1.06 ± 0.14 | 1.05 ± 0.13 | 1.11 ± 0.13 | 1.1 ± 0.15 | 1.07 ± 0.15 | 1.15 ± 0.1 | 1.11 ± 0.024 | 1.05 ± 0.08 | 1.04 ± 0.15 | 0.874 ± 0.06 | 3.29 | 1.38 | 3.02 | 1.76
